From patent publication US20230372481A1 (priority 2020, published 2023)
Where “and” joins values, the source holds several entries; their conditions need not be identical. Equal entries are not always repeated. Where two headings read alike, the source gives them in different places.

Legend:
CD45RA− memory T cells [1] = assay: Phenotypic characterization of CD45RA− memory T cells in the presence of IL-15 (Table 11); format: cell-based, human; settings: for Fold change CD127lowCD25+ (Treg): CD45RA−CD4+ subset
CD45RA− memory T cells [2] = system: CD45RA− memory T cells;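 for Fold change increase, % CD45RA−: memory T cells from a convalescent donor cultured overnight or 72 h, surface markers read by flow cytometry, fold change versus a parallel culture lacking IL15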;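 for Fold change increase, CD3+ CCR7: memory T cells from a convalescent donor cultured overnight or 72 h, surface markers read by flow cytometry, fold change versus a parallel culture lacking IL15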;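 for Fold change increase, CD3+ CD25+: memory T cells from a convalescent donor cultured overnight or 72 h, surface markers read by flow cytometry, fold change versus a parallel culture lacking IL15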;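 for Fold change increase, CD3+ CD69 BV421 high: memory T cells from a convalescent donor cultured overnight or 72 h, surface markers read by flow cytometry, fold change versus a parallel culture lacking IL15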
Description: CD45RA− memory T cells from the convalescent donor where thawed and incubated in Tex MACs media TexMACS Medium (Miltenyi Biotec, Germany) supplemented with 5% AB serum (Sigma-Aldrich, Saint Louis, Missouri, USA) plus 50 ng/ml of IL15 o/n and for 72 hours. After that time the cells were harvested and the phenotypic assay was performed. The same culture without IL15 was run in parallel as a control.
Cell surface staining was performed for 20 minutes at 4 degrees with the following fluorochrome conjugated antibodies titrated to their optimal concentrations: 7AAD (BD Horizon), CD45RA FITC (BD Pharmingen), CD3 viogreen (Miltenyi Biotec), CD4 PECy7 (BD Pharmingen), CD8 APC Cy7 (BD Pharmingen), CD27 APC (BD Pharmingen). For the Treg panel CD25 BV421 (BD Horizon), and CD127 PE-CF594 (BD Horizon), was used. For the activation panel HLA-DR BV 421 (BD Pharmingen), CD69 BV421 (Biolegend), CD25 BV421 (BD Horizon), was used. For the exhaustion panel PD1 AF700 (Biolegend), NKG2D BV421 (Biolegend) was used. For the cytokine panel CD103 BV421 (BD Horizon) and CCR7 PE-CF594 (BD Horizon) was used. An average of 200.000 cells was acquired. Cell acquisition was performed using a FACS Canto. The analysis was performed using FlowJo 9.9.6 (FlowJo LLC).

CD45RA− memory T cells [3] = format: cell-based, human; settings: for IFNγ production WITH IL15 X3, CD45RA− / IFNγ production WITH IL15 X3, CD45RA− CD3+ / IFNγ production WITH IL15 X3, CD45RA− CD3+ CD4+ / IFNγ production WITH IL15 X3, CD45RA− CD3+ CD8+ / FOLD INCREASE OF IFNγ PRODUCTION, CD45RA− / FOLD INCREASE OF IFNγ PRODUCTION, CD45RA− CD3+ / FOLD INCREASE OF IFNγ PRODUCTION, CD45RA− CD3+ CD4+ / FOLD INCREASE OF IFNγ PRODUCTION, CD45RA− CD3+ CD8+: three peptivators
[4] = CD3+ subset, IL-15 for 72 hours
[5] = CD4+ subset, IL-15 for 72 hours
[6] = CD8+ subset, IL-15 for 72 hours
[7] = IL-15 72 hours vs control with no cytokine
[8] = IL-15 o/n vs control with no cytokine
[9] = IL15 (3 days) 50 ng/ml vs no cytokine
[10] = IL15 (3 days) 50 ng/ml vs no cytokine, listed as IL-15
[11] = IL15 (o.n.) 50 ng/ml vs no cytokine
[12] = DAY 3 (72 hours) with IL-15 50 ng/ml
[13] = DAY 3, with minus without IL-15, three peptivators
[14] = O/N, with minus without IL-15, three peptivators

## IL15: cytokine fundamental for memory T cells that induces the activation, the proliferation and the survival of T cells
CD45RA− memory T cells [1]; [4]
  Fold change CD25+ (T cell activation marker): 13.16
  Fold change CD69+ (T cell activation marker): 26
  Fold change HLA-DR+ high (T cell activation marker): 1.21
  Fold change NKG2A+ (T cell exhaustion marker): 0.77
  Fold change PD1+ high (T cell exhaustion marker): 3.43
CD45RA− memory T cells [1]; CD3+ subset, IL-15 o/n
  Fold change CD25+ (T cell activation marker): 2.11
  Fold change CD69+ (T cell activation marker): 3.82
  Fold change HLA-DR+ high (T cell activation marker): 1.11
  Fold change NKG2A+ (T cell exhaustion marker): 0.61
  Fold change PD1+ high (T cell exhaustion marker): 1.43
CD45RA− memory T cells [1]; [5]
  Fold change CD25+ (T cell activation marker): 9.88
  Fold change CD69+ (T cell activation marker): 27.82
  Fold change HLA-DR+ high (T cell activation marker): 1.22
  Fold change NKG2A+ (T cell exhaustion marker): 2.67
  Fold change PD1+ high (T cell exhaustion marker): 3.41
CD45RA− memory T cells [1]; CD4+ subset, IL-15 o/n
  Fold change CD25+ (T cell activation marker): 2.12
  Fold change CD69+ (T cell activation marker): 4.48
  Fold change HLA-DR+ high (T cell activation marker): 0.97
  Fold change NKG2A+ (T cell exhaustion marker): 0.39
  Fold change PD1+ high (T cell exhaustion marker): 1.35
CD45RA− memory T cells [1]; [6]
  Fold change CD25+ (T cell activation marker): 105
  Fold change CD69+ (T cell activation marker): 6.48
  Fold change HLA-DR+ high (T cell activation marker): 1.61
  Fold change NKG2A+ (T cell exhaustion marker): 1.23
  Fold change PD1+ high (T cell exhaustion marker): 2.97
CD45RA− memory T cells [1]; CD8+ subset, IL-15 o/n
  Fold change CD25+ (T cell activation marker): 14.27
  Fold change CD69+ (T cell activation marker): 2.10
  Fold change HLA-DR+ high (T cell activation marker): 1.32
  Fold change NKG2A+ (T cell exhaustion marker): 0.73
  Fold change PD1+ high (T cell exhaustion marker): 1.51
CD45RA− memory T cells [1]; IL-15 for 72 hours vs day 0 WO IL15
  Fold change CD127lowCD25+ (Treg): 7.88
CD45RA− memory T cells [1]; IL-15 o/n vs day 0 WO IL15
  Fold change CD127lowCD25+ (Treg): 1.85
CD45RA− memory T cells [1]; IL-15 72 hours
  Fold time change of exhaustion marker NKG2A, CD45RA−CD3+ cells: 0.77 fold
  Fold time change of exhaustion marker PD-1, CD45RA−CD3+ cells: 3.43 fold
CD45RA− memory T cells [1]; [7]
  Fold increase of activation marker CD25, CD45RA− CD3+ cells: 13.26 fold
  Fold increase of activation marker CD69, CD45RA− CD3+ cells: 26 fold
  Fold increase of activation marker HLA-DR, CD45RA− CD3+ cells: 1.21 fold
CD45RA− memory T cells [1]; IL-15 o/n
  Fold time change of exhaustion marker NKG2A, CD45RA−CD3+ cells: 0.61 fold
  Fold time change of exhaustion marker PD-1, CD45RA−CD3+ cells: 1.43 fold
CD45RA− memory T cells [1]; [8]
  Fold increase of activation marker CD25, CD45RA− CD3+ cells: 2.28 fold
  Fold increase of activation marker CD69, CD45RA− CD3+ cells: 3.82 fold
  Fold increase of activation marker HLA-DR, CD45RA− CD3+ cells: 1.11 fold
CD45RA− memory T cells [2]; [9]
  Fold change increase, % CD45RA−: 1.0 fold
  Fold change increase, CD3+ CCR7: 1 fold and 1.0 fold
  Fold change increase, CD3+ CD25+: 8.5 fold
  Fold change increase, CD3+ CD69 BV421 high: 29.6 fold
  Fold change increase, CD3+ CD103: 1.2 fold
  Fold change increase, CD3+ HLA-DR+: 2.6 fold
  Fold change increase, CD3+ NKG2A+: 1.4 fold
  Fold change increase, CD3+ PD1 AF700: 8.7 fold
  Fold change increase, CD4+ CCR7: 1.0 fold
  Fold change increase, CD4+ CD25+: 8.6 fold
  Fold change increase, CD4+ CD69 BV421 high: 59.8 fold
  Fold change increase, CD4+ CD103: 1.0 fold
  Fold change increase, CD4+ HLA-DR+: 2.4 fold
  Fold change increase, CD4+ NKG2A+: 0.6 fold
  Fold change increase, CD4+ PD1 AF700: 9.1 fold
  Fold change increase, CD8+ CCR7: 1.4 fold
  Fold change increase, CD8+ CD25+: 36.4 fold
  Fold change increase, CD8+ CD69 BV421 high: 5.6 fold
  Fold change increase, CD8+ CD103: 1.4 fold
  Fold change increase, CD8+ HLA-DR+: 1.9 fold
  Fold change increase, CD8+ NKG2A+: 1.2 fold
  Fold change increase, CD8+ PD1 AF700: 6.1 fold
  Fold change increase, CD45RA− % CD3+: 1.0 fold
  Fold change increase, CD45RA− % CD4+: 1.0 fold
  Fold change increase, CD45RA− % CD8+: 1.1 fold
  Fold change increase, CD45RA− CD4+ CD27+ (CM): 1.0 fold
  Fold change increase, CD45RA− CD4+ CD27− (EM): 0.9 fold
  Fold change increase, CD45RA− CD4+ CD127lowCD25+ (Treg): 2.0 fold
  Fold change increase, CD45RA− CD8+ CD27+ (CM): 1.0 fold
  Fold change increase, CD45RA− CD8+ CD27− (EM): 1.0 fold
CD45RA− memory T cells [2]; [10]
  Fold change increase, CD3+ CCR7: No modification
  Fold change increase, CD3+ CD25+: 8.6 fold
CD45RA− memory T cells [2]; [11]
  Fold change increase, % CD45RA−: 1.0 fold
  Fold change increase, CD3+ CCR7: 1.0 fold
  Fold change increase, CD3+ CD25+: 1.5 fold
  Fold change increase, CD3+ CD69 BV421 high: 3.2 fold
  Fold change increase, CD3+ CD103: 0.7 fold
  Fold change increase, CD3+ HLA-DR+: 1.2 fold
  Fold change increase, CD3+ NKG2A+: 0.7 fold
  Fold change increase, CD3+ PD1 AF700: 0.7 fold
  Fold change increase, CD4+ CCR7: 1.0 fold
  Fold change increase, CD4+ CD25+: 1.5 fold
  Fold change increase, CD4+ CD69 BV421 high: 2.9 fold
  Fold change increase, CD4+ CD103: 0.7 fold
  Fold change increase, CD4+ HLA-DR+: 1.2 fold
  Fold change increase, CD4+ NKG2A+: 1.2 fold
  Fold change increase, CD4+ PD1 AF700: 0.8 fold
  Fold change increase, CD8+ CCR7: 1.5 fold
  Fold change increase, CD8+ CD25+: 4.4 fold
  Fold change increase, CD8+ CD69 BV421 high: 2.8 fold
  Fold change increase, CD8+ CD103: 0.9 fold
  Fold change increase, CD8+ HLA-DR+: 1.2 fold
  Fold change increase, CD8+ NKG2A+: 0.8 fold
  Fold change increase, CD8+ PD1 AF700: 1.7 fold
  Fold change increase, CD45RA− % CD3+: 1.0 fold
  Fold change increase, CD45RA− % CD4+: 1.0 fold
  Fold change increase, CD45RA− % CD8+: 0.8 fold
  Fold change increase, CD45RA− CD4+ CD27+ (CM): 1.0 fold
  Fold change increase, CD45RA− CD4+ CD27− (EM): 0.9 fold
  Fold change increase, CD45RA− CD4+ CD127lowCD25+ (Treg): 1.3 fold
  Fold change increase, CD45RA− CD8+ CD27+ (CM): 1.1 fold
  Fold change increase, CD45RA− CD8+ CD27− (EM): 0.9 fold
CD45RA− memory T cells [2]; IL15 (o.n.) 50 ng/ml vs no cytokine, listed as IL-15
  Fold change increase, CD3+ CCR7: No modification
CD45RA− memory T cells [3]; [12]
  IFNγ production WITH IL15 X3, CD45RA−: 1.9
  IFNγ production WITH IL15 X3, CD45RA− CD3+: 1.7
  IFNγ production WITH IL15 X3, CD45RA− CD3+ CD4+: 1.5
  IFNγ production WITH IL15 X3, CD45RA− CD3+ CD8+: 2.7
CD45RA− memory T cells [3]; [13]
  IFNγ production W-WO, CD45RA−: 1.6
  IFNγ production W-WO, CD45RA− CD3+: 1.4
  IFNγ production W-WO, CD45RA− CD3+ CD4+: 1.1
  IFNγ production W-WO, CD45RA− CD3+ CD8+: 2.4
CD45RA− memory T cells [3]; DAY 3 with IL-15 vs without
  FOLD INCREASE OF IFNγ PRODUCTION, CD45RA−: 5.3 fold
  FOLD INCREASE OF IFNγ PRODUCTION, CD45RA− CD3+: 5.8 fold
  FOLD INCREASE OF IFNγ PRODUCTION, CD45RA− CD3+ CD4+: 3.8 fold
  FOLD INCREASE OF IFNγ PRODUCTION, CD45RA− CD3+ CD8+: 11.6 fold
CD45RA− memory T cells [3]; O/N with IL-15 50 ng/ml
  IFNγ production WITH IL15 X3, CD45RA−: 3.8
  IFNγ production WITH IL15 X3, CD45RA− CD3+: 3.8
  IFNγ production WITH IL15 X3, CD45RA− CD3+ CD4+: 3.8
  IFNγ production WITH IL15 X3, CD45RA− CD3+ CD8+: 4.6
CD45RA− memory T cells [3]; O/N with IL-15 vs without
  FOLD INCREASE OF IFNγ PRODUCTION, CD45RA−: 19.2 fold
  FOLD INCREASE OF IFNγ PRODUCTION, CD45RA− CD3+: 13.6 fold
  FOLD INCREASE OF IFNγ PRODUCTION, CD45RA− CD3+ CD4+: 12.5 fold
  FOLD INCREASE OF IFNγ PRODUCTION, CD45RA− CD3+ CD8+: 14.8 fold
CD45RA− memory T cells [3]; [14]
  IFNγ production W-WO, CD45RA−: 3.6
  IFNγ production W-WO, CD45RA− CD3+: 3.5
  IFNγ production W-WO, CD45RA− CD3+ CD4+: 3.5
  IFNγ production W-WO, CD45RA− CD3+ CD8+: 4.3
CD45RA− memory T cells [3]; WITH IL15 PEPX3 72 hours
  % Memory T cells, % CD45RA−: 84%
  % Memory T cells, % CD45RA−CD3+: 95.1%
  % Memory T cells, % CD45RA−CD3+ CD4+: 91.2%
  % Memory T cells, % CD45RA−CD3+ CD8+: 3.45%
CD45RA− memory T cells [3]; WITH IL15 PEPX3 o/n
  % Memory T cells, % CD45RA−: 97.7%
  % Memory T cells, % CD45RA−CD3+: 94.9%
  % Memory T cells, % CD45RA−CD3+ CD4+: 91%
  % Memory T cells, % CD45RA−CD3+ CD8+: 6.23%
